Test results as given in patent US20080269266A1, “NOVEL COMPOUNDS 747” (ASTRAZENECA AB, priority 2007, published 2008).
pIC50: −log10 of the molar value. In brackets after ≈: the same amount, converted by molar mass.

Assays:
[1] = Solubility in 0.1 M phosphate buffer pH 7.4; type: physicochemical; conditions: pH 7.4, 24 h
Procedure: Solubility values are determined by agitation of compounds in 0.1 M phosphate buffer at pH 7.4 for 24 h at 25° C. The supernatant is separated from undissolved material by double centrifugation and subsequently analyzed and quantified against a standard of known concentration in DMSO using generic HPLC-UV methodology coupled with mass spectral peak identification (J. Med. Chem., 2006, 49(23), 6672-6682).

[2] = biological target: T1, human cytochrome P450 (CYP) 1A2 (Homo sapiens, UniProt P05177); test: Cytochrome P450 Inhibition Assay 1A2; type: in vitro ADME; conditions: test compound final concentrations 0.1-10 μM; substrate CEC
T1 construct: made in house; host or cells: yeast cell lines (microsomal fractions)
T1 sequence (P05177 1-516): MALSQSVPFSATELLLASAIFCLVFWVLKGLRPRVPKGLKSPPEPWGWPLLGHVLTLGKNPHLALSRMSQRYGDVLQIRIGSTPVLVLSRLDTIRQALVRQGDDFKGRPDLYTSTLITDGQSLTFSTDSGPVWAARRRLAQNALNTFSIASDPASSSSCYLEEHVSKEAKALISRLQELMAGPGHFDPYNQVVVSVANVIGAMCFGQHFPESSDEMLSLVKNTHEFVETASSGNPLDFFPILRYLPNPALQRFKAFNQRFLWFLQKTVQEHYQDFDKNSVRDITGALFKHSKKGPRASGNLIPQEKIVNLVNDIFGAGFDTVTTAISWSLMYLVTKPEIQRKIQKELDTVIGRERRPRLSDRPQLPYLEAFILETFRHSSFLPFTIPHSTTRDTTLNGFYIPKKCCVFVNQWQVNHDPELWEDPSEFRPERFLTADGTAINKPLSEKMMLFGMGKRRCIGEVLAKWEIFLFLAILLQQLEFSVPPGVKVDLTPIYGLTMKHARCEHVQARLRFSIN
Procedure: The inhibitory potential (IC50) of test compounds against 5 human cytochrome P450 (CYP) isoforms (1A2, 2C9, 2C19, 3A4 and 2D6) was assessed using an automated fluorescent end point in vitro assay modified from Crespi (Crespi and Stresser, 2000). Microsomal subcellular fractions prepared from Yeast cell lines expressing each human CYP isoform were used as an enzyme source in this assay. The activity of the 5 major human CYPs was determined from the biotransformation of a number of coumarin substrates to fluorescent metabolites, in the presence of NADPH. […] Comparison of the fluorescence observed in the presence of varying concentrations of test compound with that seen in its absence allowed an IC50 value to be calculated. Stock solutions of each CYP, with its respective substrate, were prepared in phosphate buffer pH7.4 (see Table 1) and 178 μl was added to the well of a black solid, flat bottom, 300 μl 96 well is microtitre plate (Corning Costar). […] The appropriate solvent controls and substrate blanks were included in each experiment to assess control activity and identify any inherent fluorescence due to the test compounds. […] The plates were read on a fluorimeter (Spectrafluor Plus) at the appropriate excitation and emission wavelengths (listed in Table 2) and the percent activity, corrected for control, was plotted against the test compound concentration.

[3] = biological target: T2, human cytochrome P450 (CYP) 2C9 (Homo sapiens, UniProt P11712); test: Cytochrome P450 Inhibition Assay 2C9; type: in vitro ADME; conditions: test compound final concentrations 0.1-10 μM; substrate MFC
T2 construct: made in house; host or cells: yeast cell lines (microsomal fractions)
Procedure: The inhibitory potential (IC50) of test compounds against 5 human cytochrome P450 (CYP) isoforms (1A2, 2C9, 2C19, 3A4 and 2D6) was assessed using an automated fluorescent end point in vitro assay modified from Crespi (Crespi and Stresser, 2000). Microsomal subcellular fractions prepared from Yeast cell lines expressing each human CYP isoform were used as an enzyme source in this assay. The activity of the 5 major human CYPs was determined from the biotransformation of a number of coumarin substrates to fluorescent metabolites, in the presence of NADPH. […] Stock solutions of each CYP, with its respective substrate, were prepared in phosphate buffer pH7.4 (see Table 1) and 178 μl was added to the well of a black solid, flat bottom, 300 μl 96 well is microtitre plate (Corning Costar). […] After pre-incubating at 37° C. for 5 min the reactions were started with addition of NADPH (20 μl, concentration shown in Table 1). […] The appropriate solvent controls and substrate blanks were included in each experiment to assess control activity and identify any inherent fluorescence due to the test compounds. […] The plates were read on a fluorimeter (Spectrafluor Plus) at the appropriate excitation and emission wavelengths (listed in Table 2) and the percent activity, corrected for control, was plotted against the test compound concentration.

[4] = Protein binding by equilibrium dialysis; type: in vitro ADME; conditions: rat, equilibrium dialysis against 10% plasma, 37° C., read-out: Protein binding, % free
Procedure: Protein binding is determined by equilibrium dialysis. A 20 iM concentration of compound is dialyzed against 10% plasma at a temperature of 37° C. for 18 h. The resulting samples are analyzed using generic HPLC-UV methodology coupled with mass spectral peak identification. The reported K1 value is the first apparent association constant [proteináligand]/([protein][ligand]), all concentrations being measured in moles/liter (J. Med. Chem., 2006, 49(23), 6672-6682).
Protein binding can be measured in a high-throughput screen by equilibrium dialysis combined with liquid chromatography and mass spectrometry (Wan, H. and Rehngren, M., J. Chromatogr. A 2006, 1102, 125-134).

[5] = biological target: T3, human cytochrome P450 (CYP) 2C19 (Homo sapiens, UniProt P33261); test: Cytochrome P450 Inhibition Assay 2C19; type: in vitro ADME; conditions: test compound final concentrations 0.1-10 μM; substrate MFC; read-out: Ic50 2C19
T3 construct: made in house; host or cells: yeast cell lines (microsomal fractions)
Procedure: The inhibitory potential (IC50) of test compounds against 5 human cytochrome P450 (CYP) isoforms (1A2, 2C9, 2C19, 3A4 and 2D6) was assessed using an automated fluorescent end point in vitro assay modified from Crespi (Crespi and Stresser, 2000). Microsomal subcellular fractions prepared from Yeast cell lines expressing each human CYP isoform were used as an enzyme source in this assay. The activity of the 5 major human CYPs was determined from the biotransformation of a number of coumarin substrates to fluorescent metabolites, in the presence of NADPH. […] Stock solutions of each CYP, with its respective substrate, were prepared in phosphate buffer pH7.4 (see Table 1) and 178 μl was added to the well of a black solid, flat bottom, 300 μl 96 well is microtitre plate (Corning Costar). […] After pre-incubating at 37° C. for 5 min the reactions were started with addition of NADPH (20 μl, concentration shown in Table 1). The final solvent content in each incubation was <=2% (1% from the test compound and a maximum of 1% from the substrate). The appropriate solvent controls and substrate blanks were included in each experiment to assess control activity and identify any inherent fluorescence due to the test compounds. In addition, known inhibitors of each CYP were included as positive controls (see Table 3 for inhibitor concentrations and expected IC50 ranges). The reactions were stopped at defined timepoints (see Table 1) by quenching with 100 μl of solvent (acetonitrile:0.5M Tris buffer 80:20 v/v). The plates were read on a fluorimeter (Spectrafluor Plus) at the appropriate excitation and emission wavelengths (listed in Table 2) and the percent activity, corrected for control, was plotted against the test compound concentration.

T3 sequence (P33261 whole entry): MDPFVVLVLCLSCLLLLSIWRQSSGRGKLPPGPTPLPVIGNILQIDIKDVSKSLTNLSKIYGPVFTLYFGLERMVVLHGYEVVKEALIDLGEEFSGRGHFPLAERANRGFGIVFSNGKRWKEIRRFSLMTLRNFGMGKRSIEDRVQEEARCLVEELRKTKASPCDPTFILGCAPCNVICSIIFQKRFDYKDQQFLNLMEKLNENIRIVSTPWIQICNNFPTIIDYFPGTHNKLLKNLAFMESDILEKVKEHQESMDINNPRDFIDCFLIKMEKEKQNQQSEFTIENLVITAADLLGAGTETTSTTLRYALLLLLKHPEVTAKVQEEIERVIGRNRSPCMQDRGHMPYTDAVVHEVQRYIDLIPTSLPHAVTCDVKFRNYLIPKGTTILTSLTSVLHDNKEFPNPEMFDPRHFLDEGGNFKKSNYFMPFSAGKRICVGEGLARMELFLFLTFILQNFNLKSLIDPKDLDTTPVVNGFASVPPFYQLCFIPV
T2 sequence (P11712 whole entry): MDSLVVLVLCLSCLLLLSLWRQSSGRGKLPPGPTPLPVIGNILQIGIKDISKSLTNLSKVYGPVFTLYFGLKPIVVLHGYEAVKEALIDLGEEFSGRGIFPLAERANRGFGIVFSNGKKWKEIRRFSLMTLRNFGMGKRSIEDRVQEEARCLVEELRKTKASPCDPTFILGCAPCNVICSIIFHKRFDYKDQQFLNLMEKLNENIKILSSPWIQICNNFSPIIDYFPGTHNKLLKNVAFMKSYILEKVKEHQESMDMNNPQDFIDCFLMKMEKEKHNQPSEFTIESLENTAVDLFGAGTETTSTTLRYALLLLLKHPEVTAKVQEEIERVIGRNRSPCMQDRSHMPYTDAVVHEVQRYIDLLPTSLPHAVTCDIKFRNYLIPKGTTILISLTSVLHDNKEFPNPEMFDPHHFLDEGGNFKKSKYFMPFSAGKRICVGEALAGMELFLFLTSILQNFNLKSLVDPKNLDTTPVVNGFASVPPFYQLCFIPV

solubility at 24 h ([1]; phosphate buffer, 25 °C, pH 7.4, aqueous buffer, thermodynamic from solid) [µM] | pIC50 [2] | pIC50 [3] | fraction unbound at 18 h, 20 µM [4] | pIC50 [5] | solubility at 24 h ([1]; 25° C.) [µM] | SMILES
9.24 (≈ 4.01 µg/mL) | 5.73 | < 5.00 | 0.0205 | < 5.00 |  | CCc1cc(Nc2cc(OC)nc(N3CCC[C@H]3c3cc(-c4ncccn4)no3)n2)n[nH]1 [Comparative Example A, (S)-6-Methoxy-2-{2-[3-(pyrimid-2-yl)isoxazol-5-yl]pyrrolidin-1-yl}-4-(5-ethyl-1H-pyrazol-3-ylamino)pyrimidine]
 | < 5.00 | < 5.00 | 0.0523 | < 5.00 | 160 (≈ 67.1 µg/mL) | COc1cc(Nc2cc(C)n[nH]2)nc(N2CCC[C@H]2c2cc(-c3ncccn3)no2)n1 [Example 1, (S)-6-Methoxy-2-{2-[3-(pyrimid-2-yl)isoxazol-5-yl]pyrrolidin-1-yl}-4-(5-methyl-1H-pyrazol-3-ylamino)pyrimidine]
